Experimental data taken from the supplement of paper PMC10883282.
± gives the standard deviation of the averaged measurements.

Test system: MES-SA
Assay: relative viability vs DMSO control (72 h) (fraction); higher = more viable cells
Procedure, shortened: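 Sarcoma cell lines were seeded in 384-well plates at densities chosen for 80–90% confluence, then 24 h later given 2.5 µl of serially diluted compound drawn from source plates spanning 10 mM to 0.0002 mM. They were held 72 h at 37 °C, 5% CO2, with 0.1% DMSO vehicle and a 5 µM positive control included. Relative viability was read with ATPLite as percent growth and averaged over up to triplicate wells. Rescaling placed full at 1 and none at 0.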

In the case of `CNC(=O)c1ccc(-c2cnc3ncc(Cc4ccc5ncccc5c4)n3n2)cc1F` [Capmatinib], the relative viability (0.00017 µM) is reported as 0.93 ± 0.025, the relative viability (0.00051 µM) is reported as 0.959 ± 0.037 and the relative viability (0.00152 µM) is reported as 0.958 ± 0.028. For the same compound, the relative viability (0.00457 µM) was 0.953 ± 0.057, the relative viability (0.01372 µM) was 0.943 ± 0.012 and the relative viability (0.04115 µM) was 0.945 ± 0.036. For the same compound, the relative viability (0.1235 µM) was 0.982 ± 0.012, the relative viability (0.3704 µM) was 0.934 ± 0.012 and the relative viability (1.111 µM) was 0.937 ± 0.055. The relative viability (3.333 µM) was 0.867 ± 0.035 and the relative viability (10 µM) was 0.837 ± 0.025.

For `CCN1CCN(Cc2ccc(Nc3ncc(F)c(-c4cc(F)c5nc(C)n(C(C)C)c5c4)n3)nc2)CC1` [Abemaciclib], the relative viability (0.00017 µM) was 0.883 ± 0.026, the relative viability (0.00051 µM) was 0.901 ± 0.035 and the relative viability (0.00152 µM) was 0.878 ± 0.02. The relative viability (0.00457 µM) was 0.873 ± 0.031, the relative viability (0.01372 µM) was 0.876 ± 0.05 and the relative viability (0.04115 µM) was 0.84 ± 0.046. For the same compound, the relative viability (0.1235 µM) was 0.736 ± 0.037, the relative viability (0.3704 µM) was 0.61 ± 0.031 and the relative viability (1.111 µM) was 0.435 ± 0.012. The relative viability (3.333 µM) was 0.361 ± 0.0072 and the relative viability (10 µM) was 0.348 ± 0.023.

In the case of `C=CC(=O)N1CCC[C@@H](n2nc(-c3ccc(Oc4ccccc4)cc3)c3c(N)ncnc32)C1` [Ibrutinib], the relative viability (0.00017 µM) is reported as 1 ± 0.018, the relative viability (0.00051 µM) is reported as 0.977 ± 0.021 and the relative viability (0.00152 µM) is reported as 0.955 ± 0.041. It also gave a relative viability (0.00457 µM) of 0.947 ± 0.029, a relative viability (0.01372 µM) of 0.966 ± 0.026 and a relative viability (0.04115 µM) of 0.964 ± 0.026. The relative viability (0.1235 µM) was 0.931 ± 0.03, the relative viability (0.3704 µM) was 0.864 ± 0.011 and the relative viability (1.111 µM) was 0.866 ± 0.045. It also gave a relative viability (3.333 µM) of 0.88 ± 0.022 and a relative viability (10 µM) of 0.6991 ± 0.0047.

For `Cn1cnc2c(F)c(Nc3ccc(Br)cc3F)c(C(=O)NOCCO)cc21` [Binimetinib], the relative viability (0.00017 µM) was 0.927 ± 0.027, the relative viability (0.00051 µM) was 0.9232 ± 0.0083 and the relative viability (0.00152 µM) was 0.927 ± 0.017. It also gave a relative viability (0.00457 µM) of 0.894 ± 0.042, a relative viability (0.01372 µM) of 0.892 ± 0.024 and a relative viability (0.04115 µM) of 0.84 ± 0.025. It also gave a relative viability (0.1235 µM) of 0.793 ± 0.02, a relative viability (0.3704 µM) of 0.7569 ± 0.0022 and a relative viability (1.111 µM) of 0.782 ± 0.025. It also gave a relative viability (3.333 µM) of 0.741 ± 0.037 and a relative viability (10 µM) of 0.735 ± 0.059.

`CC1(C)CNc2cc(NC(=O)c3cccnc3NCc3ccncc3)ccc21` [Motesanib] showed a relative viability (0.00017 µM) of 0.93 ± 0.044, a relative viability (0.00051 µM) of 0.946 ± 0.034 and a relative viability (0.00152 µM) of 0.962 ± 0.01. The relative viability (0.00457 µM) was 0.937 ± 0.023, the relative viability (0.01372 µM) was 0.949 ± 0.061 and the relative viability (0.04115 µM) was 0.947 ± 0.047. It also gave a relative viability (0.1235 µM) of 0.961 ± 0.02, a relative viability (0.3704 µM) of 1 ± 0.044 and a relative viability (1.111 µM) of 0.96 ± 0.035. The relative viability (3.333 µM) was 0.948 ± 0.013 and the relative viability (10 µM) was 0.849 ± 0.041.

With `C[C@@H](c1ccc2nccn2c1)n1nnc2ncc(-c3cnn(C)c3)nc21` [Volitinib] the relative viability (0.00017 µM) was 0.91 ± 0.021, the relative viability (0.00051 µM) was 0.92 ± 0.053 and the relative viability (0.00152 µM) was 0.97 ± 0.022. It also gave a relative viability (0.00457 µM) of 0.927 ± 0.043, a relative viability (0.01372 µM) of 0.959 ± 0.019 and a relative viability (0.04115 µM) of 0.957 ± 0.026. The relative viability (0.1235 µM) was 0.929 ± 0.039, the relative viability (0.3704 µM) was 0.949 ± 0.029 and the relative viability (1.111 µM) was 0.926 ± 0.018. The relative viability (3.333 µM) was 0.942 ± 0.018 and the relative viability (10 µM) was 0.902 ± 0.035.

Compound `Cc1ccc(NC(=O)c2ccc(CN3CCN(C)CC3)cc2)cc1Nc1nc(-c2cccnc2)cs1` [Masitinib] has a relative viability (0.00017 µM) of 0.978 ± 0.013, a relative viability (0.00051 µM) of 0.969 ± 0.014 and a relative viability (0.00152 µM) of 0.955 ± 0.021. It also gave a relative viability (0.00457 µM) of 0.96 ± 0.028, a relative viability (0.01372 µM) of 0.952 ± 0.011 and a relative viability (0.04115 µM) of 0.956 ± 0.015. For the same compound, the relative viability (0.1235 µM) was 0.912 ± 0.025, the relative viability (0.3704 µM) was 0.905 ± 0.026 and the relative viability (1.111 µM) was 0.735 ± 0.029. The relative viability (3.333 µM) was 0.445 ± 0.017 and the relative viability (10 µM) was 0.11 ± 0.011.

`C=CC(=O)Nc1cccc(Oc2nc(Nc3ccc(N4CCN(C)CC4)cc3)nc3ccsc23)c1` [Olmutinib] was tested, and the relative viability (0.00017 µM) was 0.931 ± 0.038, the relative viability (0.00051 µM) was 0.964 ± 0.027 and the relative viability (0.00152 µM) was 0.916 ± 0.037. The relative viability (0.00457 µM) was 0.937 ± 0.055, the relative viability (0.01372 µM) was 0.918 ± 0.036 and the relative viability (0.04115 µM) was 0.955 ± 0.045. The relative viability (0.1235 µM) was 0.968 ± 0.035, the relative viability (0.3704 µM) was 0.954 ± 0.012 and the relative viability (1.111 µM) was 0.9273 ± 0.0055. It also gave a relative viability (3.333 µM) of 0.751 ± 0.029 and a relative viability (10 µM) of 0.448 ± 0.025.

`CC(C)(C)c1cc(NC(=O)Nc2ccc(-c3cn4c(n3)sc3cc(OCCN5CCOCC5)ccc34)cc2)no1` [Quizartinib] gave a relative viability (0.00017 µM) of 0.944 ± 0.012, a relative viability (0.00051 µM) of 0.974 ± 0.019 and a relative viability (0.00152 µM) of 0.94 ± 0.015. For the same compound, the relative viability (0.00457 µM) was 0.935 ± 0.046, the relative viability (0.01372 µM) was 0.937 ± 0.023 and the relative viability (0.04115 µM) was 0.931 ± 0.016. It also gave a relative viability (0.1235 µM) of 0.953 ± 0.025, a relative viability (0.3704 µM) of 0.933 ± 0.031 and a relative viability (1.111 µM) of 0.823 ± 0.017. For the same compound, the relative viability (3.333 µM) was 0.602 ± 0.041 and the relative viability (10 µM) was 0.577 ± 0.025.

`CC(C)NC(=O)C1CCC(n2c(NC(=O)c3ccc(F)cc3)nc3ccc(CN4CCC(C(C)(C)O)CC4)cc32)CC1` (stereo not given) [Belizatinib] gave a relative viability (0.00017 µM) of 0.942 ± 0.023, a relative viability (0.00051 µM) of 0.92 ± 0.026 and a relative viability (0.00152 µM) of 0.934 ± 0.012. For the same compound, the relative viability (0.00457 µM) was 0.957 ± 0.023, the relative viability (0.01372 µM) was 0.932 ± 0.018 and the relative viability (0.04115 µM) was 0.9451 ± 0.0052. It also gave a relative viability (0.1235 µM) of 0.9316 ± 0.0039, a relative viability (0.3704 µM) of 0.934 ± 0.037 and a relative viability (1.111 µM) of 0.824 ± 0.022. For the same compound, the relative viability (3.333 µM) was 0.523 ± 0.024 and the relative viability (10 µM) was 0.148 ± 0.016.

For `Cc1ccc(F)c(NC(=O)Nc2ccc(-c3cccc4[nH]nc(N)c34)cc2)c1` [Linifanib], the relative viability (0.00017 µM) was 0.979 ± 0.013, the relative viability (0.00051 µM) was 0.968 ± 0.02 and the relative viability (0.00152 µM) was 0.942 ± 0.014. The relative viability (0.00457 µM) was 0.956 ± 0.035, the relative viability (0.01372 µM) was 0.974 ± 0.01 and the relative viability (0.04115 µM) was 0.971 ± 0.015. The relative viability (0.1235 µM) was 0.969 ± 0.011, the relative viability (0.3704 µM) was 0.918 ± 0.033 and the relative viability (1.111 µM) was 0.935 ± 0.01. The relative viability (3.333 µM) was 0.75 ± 0.21 and the relative viability (10 µM) was 0.933 ± 0.014.

`Cc1nc(NC(=O)N2CCC[C@H]2C(N)=O)sc1-c1ccnc(C(C)(C)C(F)(F)F)c1` [Alpelisib] showed a relative viability (0.00017 µM) of 0.884 ± 0.046, a relative viability (0.00051 µM) of 0.909 ± 0.053 and a relative viability (0.00152 µM) of 0.901 ± 0.01. For the same compound, the relative viability (0.00457 µM) was 0.88 ± 0.052, the relative viability (0.01372 µM) was 0.879 ± 0.033 and the relative viability (0.04115 µM) was 0.843 ± 0.034. It also gave a relative viability (0.1235 µM) of 0.774 ± 0.014, a relative viability (0.3704 µM) of 0.64 ± 0.016 and a relative viability (1.111 µM) of 0.526 ± 0.019. It also gave a relative viability (3.333 µM) of 0.43 ± 0.015 and a relative viability (10 µM) of 0.323 ± 0.0056.

`C[C@]1(O)C[C@@H](c2nc(-c3ccc4ccc(-c5ccccc5)nc4c3)c3c(N)nccn32)C1` [Linsitinib] gave a relative viability (0.00017 µM) of 0.983 ± 0.02, a relative viability (0.00051 µM) of 0.958 ± 0.021 and a relative viability (0.00152 µM) of 0.9582 ± 0.0041. The relative viability (0.00457 µM) was 0.926 ± 0.015, the relative viability (0.01372 µM) was 0.962 ± 0.015 and the relative viability (0.04115 µM) was 0.943 ± 0.025. The relative viability (0.1235 µM) was 0.958 ± 0.035, the relative viability (0.3704 µM) was 0.898 ± 0.024 and the relative viability (1.111 µM) was 0.887 ± 0.01. For the same compound, the relative viability (3.333 µM) was 0.784 ± 0.0085 and the relative viability (10 µM) was 0.63 ± 0.023.

`C=CC(=O)N1CCC([C@@H]2CCNc3c(C(N)=O)c(-c4ccc(Oc5ccccc5)cc4)nn32)CC1` [Zanubrutinib] showed a relative viability (0.00017 µM) of 0.9598 ± 0.0038, a relative viability (0.00051 µM) of 0.965 ± 0.013 and a relative viability (0.00152 µM) of 0.959 ± 0.026. For the same compound, the relative viability (0.00457 µM) was 0.983 ± 0.033, the relative viability (0.01372 µM) was 0.918 ± 0.031 and the relative viability (0.04115 µM) was 0.95 ± 0.037. For the same compound, the relative viability (0.1235 µM) was 0.92 ± 0.041, the relative viability (0.3704 µM) was 0.965 ± 0.034 and the relative viability (1.111 µM) was 0.955 ± 0.018. It also gave a relative viability (3.333 µM) of 0.881 ± 0.041 and a relative viability (10 µM) of 0.742 ± 0.034.

`CCc1cc2c(cc1N1CCC(N3CCOCC3)CC1)C(C)(C)c1[nH]c3cc(C#N)ccc3c1C2=O` [Alectinib] gave a relative viability (0.00017 µM) of 0.896 ± 0.018, a relative viability (0.00051 µM) of 0.91 ± 0.026 and a relative viability (0.00152 µM) of 0.895 ± 0.045. For the same compound, the relative viability (0.00457 µM) was 0.893 ± 0.036, the relative viability (0.01372 µM) was 0.889 ± 0.068 and the relative viability (0.04115 µM) was 0.944 ± 0.035. It also gave a relative viability (0.1235 µM) of 0.953 ± 0.035, a relative viability (0.3704 µM) of 0.9459 ± 0.0094 and a relative viability (1.111 µM) of 0.942 ± 0.018. For the same compound, the relative viability (3.333 µM) was 0.968 ± 0.049 and the relative viability (10 µM) was 0.959 ± 0.035.
